Data taken from PubChem BioAssay AID1963448 (Molecular Pharmacology Branch, DTP, NCI, 2024).
pIC50: −log10 of the molar value.

Test system: 616215-338-R-J1-PDC complex spheroid growth, % test/control
Assay: Anticancer human tumor 616215-338-R-J1-PDC patient-derived colon adenocarcinoma cell line growth inhibition [Asc]
Details: for pIC50: curve of first compound; for viability, T/C: stronger effect = lower value
Summary of the method: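 Stromal components (HUVEC and hMSC) are co-assembled with the cancer cells into multicellular spheroids. Drugs are then added singly or paired, at concentrations falling by half-log increments from a clinically achievable maximum, capped at 10 microM without known Cmax.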

[1] = second compound 0.00316 µM, first compound 0.0316 µM
[2] = second compound 0.00316 µM, first compound 0.1 µM
[3] = second compound 0.01 µM, first compound 0.0316 µM
[4] = second compound 0.01 µM, first compound 0.1 µM
[5] = second compound 0.0316 µM, first compound 0.0316 µM
[6] = second compound 0.0316 µM, first compound 0.1 µM
[7] = second compound 0.1 µM, first compound 0.0316 µM
[8] = second compound 0.1 µM, first compound 0.1 µM
[9] = second compound 0.316 µM, first compound 0.0316 µM
[10] = second compound 0.316 µM, first compound 0.1 µM
[11] = second compound 1 µM, first compound 0.0316 µM
[12] = second compound 1 µM, first compound 0.1 µM
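Note: spheroids exposed to agents for seven days before readout.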
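Throughout, for viability, T/C: 100% = DMSO vehicle control viability.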

SMILES: Cc1nc(N2CCC3(CC2)COC(C)C3N)c(CO)nc1Sc1ccnc(N)c1Cl (centres undefined) + CCN1C(C(=O)NC23CCC(C(=O)O)(CC2)CC3)C(c2cccc(Cl)c2F)C2(C(=O)Nc3cc(Cl)ccc32)C12CCCCC2
- pIC50 (second compound 0.03 µM): < 5.52
- pIC50 (second compound 0.0949 µM): < 5.52
- pIC50 (second compound 0.3 µM): 6.52
- pIC50 (second compound 0.949 µM): 6.47
- pIC50 (second compound 3 µM): 7.39
- viability, T/C (second compound 0.03 µM, first compound 0.00949 µM): 99.4%
- viability, T/C (second compound 0.03 µM, first compound 0.03 µM): 102%
- viability, T/C (second compound 0.03 µM, first compound 0.0949 µM): 98.4%
- viability, T/C (second compound 0.03 µM, first compound 0.3 µM): 91.8%
- viability, T/C (second compound 0.03 µM, first compound 0.949 µM): 86.3%
- viability, T/C (second compound 0.03 µM, first compound 3 µM): 74.4%
- viability, T/C (second compound 0.0949 µM, first compound 0.00949 µM): 101%
- viability, T/C (second compound 0.0949 µM, first compound 0.03 µM): 89.2%
- viability, T/C (second compound 0.0949 µM, first compound 0.0949 µM): 84.1%
- viability, T/C (second compound 0.0949 µM, first compound 0.3 µM): 87.2%
- viability, T/C (second compound 0.0949 µM, first compound 0.949 µM): 80.5%
- viability, T/C (second compound 0.0949 µM, first compound 3 µM): 64.7%
- viability, T/C (second compound 0.3 µM, first compound 0.00949 µM): 69.8%
- viability, T/C (second compound 0.3 µM, first compound 0.03 µM): 65.6%
- viability, T/C (second compound 0.3 µM, first compound 0.0949 µM): 65.1%
- viability, T/C (second compound 0.3 µM, first compound 0.3 µM): 49.4%
- viability, T/C (second compound 0.3 µM, first compound 0.949 µM): 39.2%
- viability, T/C (second compound 0.3 µM, first compound 3 µM): 35%
- viability, T/C (second compound 0.949 µM, first compound 0.00949 µM): 65.9%
- viability, T/C (second compound 0.949 µM, first compound 0.03 µM): 65%
- viability, T/C (second compound 0.949 µM, first compound 0.0949 µM): 66.6%
- viability, T/C (second compound 0.949 µM, first compound 0.3 µM): 48.3%
- viability, T/C (second compound 0.949 µM, first compound 0.949 µM): 37.7%
- viability, T/C (second compound 0.949 µM, first compound 3 µM): 24.8%
- viability, T/C (second compound 3 µM, first compound 0.00949 µM): 53.3%
- viability, T/C (second compound 3 µM, first compound 0.03 µM): 49.2%
- viability, T/C (second compound 3 µM, first compound 0.0949 µM): 47.8%
- viability, T/C (second compound 3 µM, first compound 0.3 µM): 38.8%
- viability, T/C (second compound 3 µM, first compound 0.949 µM): 23.9%
- viability, T/C (second compound 3 µM, first compound 3 µM): 11.6%

SMILES: Cn1ncnc1[C@H]1c2n[nH]c(=O)c3cc(F)cc(c23)N[C@@H]1c1ccc(F)cc1 + CNC(C)C(=O)NC1CN(S(=O)(=O)c2cccc(S(=O)(=O)N3CCC4CCC(C(=O)NC(c5ccccc5)c5ccccc5)N4C(=O)C(NC(=O)C(C)NC)C3)c2)CCC2CCC(C(=O)NC(c3ccccc3)c3ccccc3)N2C1=O
- pIC50 (second compound 0.00316 µM): > 9.50
- pIC50 (second compound 0.01 µM): < 7.00
- pIC50 (second compound 0.0316 µM): < 7.00
- pIC50 (second compound 0.1 µM): < 7.00
- pIC50 (second compound 0.316 µM): < 7.00
- pIC50 (second compound 1 µM): < 7.00
- viability, T/C (second compound 0.00316 µM, first compound 0.000316 µM): 10.7%
- viability, T/C (second compound 0.00316 µM, first compound 0.001 µM): 10.5%
- viability, T/C (second compound 0.00316 µM, first compound 0.00316 µM): 7.58%
- viability, T/C (second compound 0.00316 µM, first compound 0.01 µM): 9.25%
- viability, T/C [1]: 9.45%
- viability, T/C [2]: 8.48%
- viability, T/C (second compound 0.01 µM, first compound 0.000316 µM): 95%
- viability, T/C (second compound 0.01 µM, first compound 0.001 µM): 101%
- viability, T/C (second compound 0.01 µM, first compound 0.00316 µM): 97.2%
- viability, T/C (second compound 0.01 µM, first compound 0.01 µM): 92.4%
- viability, T/C [3]: 95.1%
- viability, T/C [4]: 98.5%
- viability, T/C (second compound 0.0316 µM, first compound 0.000316 µM): 91.5%
- viability, T/C (second compound 0.0316 µM, first compound 0.001 µM): 95.5%
- viability, T/C (second compound 0.0316 µM, first compound 0.00316 µM): 101%
- viability, T/C (second compound 0.0316 µM, first compound 0.01 µM): 102%
- viability, T/C [5]: 100%
- viability, T/C [6]: 110%
- viability, T/C (second compound 0.1 µM, first compound 0.000316 µM): 106%
- viability, T/C (second compound 0.1 µM, first compound 0.001 µM): 108%
- viability, T/C (second compound 0.1 µM, first compound 0.00316 µM): 103%
- viability, T/C (second compound 0.1 µM, first compound 0.01 µM): 108%
- viability, T/C [7]: 102%
- viability, T/C [8]: 103%
- viability, T/C (second compound 0.316 µM, first compound 0.000316 µM): 97.6%
- viability, T/C (second compound 0.316 µM, first compound 0.001 µM): 104%
- viability, T/C (second compound 0.316 µM, first compound 0.00316 µM): 102%
- viability, T/C (second compound 0.316 µM, first compound 0.01 µM): 104%
- viability, T/C [9]: 102%
- viability, T/C [10]: 98.4%
- viability, T/C (second compound 1 µM, first compound 0.000316 µM): 107%
- viability, T/C (second compound 1 µM, first compound 0.001 µM): 99.2%
- viability, T/C (second compound 1 µM, first compound 0.00316 µM): 97.2%
- viability, T/C (second compound 1 µM, first compound 0.01 µM): 99.2%
- viability, T/C [11]: 96%
- viability, T/C [12]: 101%

SMILES: O=C(c1cc(Cc2n[nH]c(=O)c3ccccc23)ccc1F)N1CCN(C(=O)C2CC2)CC1 + CNC(C)C(=O)NC1CN(S(=O)(=O)c2cccc(S(=O)(=O)N3CCC4CCC(C(=O)NC(c5ccccc5)c5ccccc5)N4C(=O)C(NC(=O)C(C)NC)C3)c2)CCC2CCC(C(=O)NC(c3ccccc3)c3ccccc3)N2C1=O
- pIC50 (second compound 0.00316 µM): > 7.50
- pIC50 (second compound 0.01 µM): < 5.00
- pIC50 (second compound 0.0316 µM): < 5.00
- pIC50 (second compound 0.1 µM): < 5.00
- pIC50 (second compound 0.316 µM): < 5.00
- pIC50 (second compound 1 µM): < 5.00
- viability, T/C [1]: 8.47%
- viability, T/C [2]: 8.86%
- viability, T/C (second compound 0.00316 µM, first compound 0.316 µM): 12.9%
- viability, T/C (second compound 0.00316 µM, first compound 1 µM): 10.3%
- viability, T/C (second compound 0.00316 µM, first compound 3.16 µM): 8.76%
- viability, T/C (second compound 0.00316 µM, first compound 10 µM): 7.09%
- viability, T/C [3]: 93.3%
- viability, T/C [4]: 88.3%
- viability, T/C (second compound 0.01 µM, first compound 0.316 µM): 97.2%
- viability, T/C (second compound 0.01 µM, first compound 1 µM): 95.6%
- viability, T/C (second compound 0.01 µM, first compound 3.16 µM): 80.8%
- viability, T/C (second compound 0.01 µM, first compound 10 µM): 76.9%
- viability, T/C [5]: 103%
- viability, T/C [6]: 91%
- viability, T/C (second compound 0.0316 µM, first compound 0.316 µM): 102%
- viability, T/C (second compound 0.0316 µM, first compound 1 µM): 103%
- viability, T/C (second compound 0.0316 µM, first compound 3.16 µM): 94.9%
- viability, T/C (second compound 0.0316 µM, first compound 10 µM): 78.1%
- viability, T/C [7]: 100%
- viability, T/C [8]: 101%
- viability, T/C (second compound 0.1 µM, first compound 0.316 µM): 94.2%
- viability, T/C (second compound 0.1 µM, first compound 1 µM): 95.5%
- viability, T/C (second compound 0.1 µM, first compound 3.16 µM): 95.2%
- viability, T/C (second compound 0.1 µM, first compound 10 µM): 78%
- viability, T/C [9]: 104%
- viability, T/C [10]: 98%
- viability, T/C (second compound 0.316 µM, first compound 0.316 µM): 105%
- viability, T/C (second compound 0.316 µM, first compound 1 µM): 106%
- viability, T/C (second compound 0.316 µM, first compound 3.16 µM): 100%
- viability, T/C (second compound 0.316 µM, first compound 10 µM): 69.9%
- viability, T/C [11]: 102%
- viability, T/C [12]: 102%
- viability, T/C (second compound 1 µM, first compound 0.316 µM): 96.2%
- viability, T/C (second compound 1 µM, first compound 1 µM): 97.1%
- viability, T/C (second compound 1 µM, first compound 3.16 µM): 94.1%
- viability, T/C (second compound 1 µM, first compound 10 µM): 80.9%
